From US9557338B2 (SIGNAL PHARMACEUTICALS, LLC, priority 2012, dated 2017)
Read-outs that look alike come from different tables or passages of the source.

Legend:
Assay type in all cases: cell-based
Phospho-PRAS40(T246) = test: Luminex multiplex assay, Phospho-PRAS40(T246); details: PC3 cell line; read-out: Luminex PRAS40
Summary of the method: (§1)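 Cells (PC3; HCT-116, MDA-MB-231 and HT29 with 500 ng/mL recombinant human IGF-I for the final 10 min) treated with compound or rapamycin over a concentration range for 1 h at 37° C, 5% CO2. Lysates read by bead-based Luminex sandwich immunoassay, 3 h at room temperature, RPE anti-rabbit detection, quantified against phosphoprotein standard curves.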

Phospho-p70S6K (T389) = test: MSD assay, phospho-p70S6K (T389) in cell lysates
Description: Determination of Phospho-p70S6K (T389) in Cell Lysates.
MSD® biomarker detection assays provide a rapid and convenient method for measuring the total and phosphorylated levels of protein targets within a single small-volume sample. In the assay, an antibody for a specific protein target is coated on one electrode (or spot) per well. The samples (cell lysates) are added to the well with a solution containing the detection antibody labeled with an electrochemiluminescent (ECL) compound, MSD SULFOTAG™ label, over the course of one or more incubation periods. The total protein present in the sample binds to the capture antibodies immobilized on the working electrode surface; recruitment of the labeled detection antibody by bound phospho-p70S6K completes the sandwich. MSD Read Buffer that provides the appropriate chemical environment for ECL is added and the plate is read using an MSD SECTOR™ Imager. Inside the SECTOR Imager, a voltage is applied to the plate electrodes which cause the labels bound to the electrode surface to emit light. The instrument measures intensity of the emitted light to afford a quantitative measure of the amount of phosphorylated protein present in the sample.
Cells were plated in 96-well flat bottom plates at the required density determined for each cell line and the cells were allowed to equilibrate at 37° C., 5% CO2 overnight. The following day, the cells were treated with Compound 1 over a range of concentrations for one hour in 5% CO2 at 37° C. After the incubation period, the culture medium was removed carefully with an aspirator. The plate was placed on ice and 50 μL of 1× Tris Lysis Buffer were added to each well. The plate was placed on a shaker at 4° C. for one hour to lyse the cells. At that point, the plate was either frozen at −80° C. for later analysis or immediately assayed for phosphoproteins as described below. To monitor interassay variability, Compound 1 was compared among all plates as a reference standard.
The assay plate was incubated with 150 μL of MSD Blocking Buffer for one hour with shaking at room temperature. The plates were washed 3 times with Tris Wash Buffer. Then 35 μL of cell lysate was added to the wells and incubated for one hour with shaking at room temperature. The solution was removed from the wells and the plate was washed 3 times with wash buffer. Twenty-five microliters of the appropriate antibody solution was then incubated for one hour with shaking at room temperature. The solution was removed from the wells and the plate was washed 3 times with wash buffer. Then 150 μL of 1×MSD Read Buffer T was added to each well. The plate was read on the SECTOR Imager plate reader.

Phospho-GSK3β(S9) = test: Luminex multiplex assay, Phospho-GSK3β(S9); details: PC3 cell line; read-out: Luminex GSK-3β
Summary of the method: as §1

GSK-3β = test: MSD assay, GSK-3β phosphorylation in cell lysates
p70S6K = test: Luminex multiplex assay, p70S6K phosphorylation in cell lysates
S6RP(S235/S236) = test: Inhibition of S6RP(S235/S236) phosphorylation in cell lines; details: Homo sapiens, read-out: IC50 for inhibition of S6RP(S235/S236) phosphorylation
Akt(S473) = test: Inhibition of Akt(S473) phosphorylation in cell lines; details: data not shown
Phospho-4E-BP1(T46) = test: Luminex multiplex assay, Phospho-4E-BP1(T46); details: not inhibited up to concentrations tested; read-out: inhibition of 4E-BP1(T46) phosphorylation
Excerpt: Determination of Phospho-GSK3β(S9), Phospho-PRAS40(T246) and Phospho-4E-BP1(T46) and the Effect of Compound 1 or Rapamycin.
The multiplex Luminex assay format differs from conventional enzyme-linked immunosorbent assay (ELISA) in that the multiplex capture antibody is attached to a polystyrene bead whereas the ELISA capture antibody is attached to the microplate well. The use of the suspension bead-based technology enables the multiplexing capabilities of the Luminex assays. The xMAP® technology uses 5.6 micron polystyrene microspheres, which are internally dyed with red and infrared fluorophores of differing intensities. Each bead is given a unique number, or bead region, allowing differentiation of one bead from another. Beads covalently bound to different specific antibodies can be mixed in the same assay, utilizing a 96-well microplate format. At the completion of the sandwich immunoassay, beads can be read, using the Luminex 100™ or Luminex 200 detection system, in single-file by dual lasers for classification and quantification of each analyte. The Akt-Pathway Phospho 5-plex kit used was custom made and includes the ability to simultaneously measure p-GSK3β (S9), p-PRAS40(T246), and p-4E-BP1(T46).
Cells were plated at the required density. The cells were treated with either Compound 1 or rapamycin over a range of concentrations for 1 hour in 5% CO2 at 37° C. Compound 1 and rapamycin were used at the same concentrations as for the proliferation assay. As for the cell proliferation assay, a reference standard was included in the assay for PC3 cells and the coefficient of variation for assay of p-GSK3β(S9) was 37.8% (n=30), p-PRAS40(T246) was 27.8% (n=30) and for p4E-BP1(T46) was 13.5% (n=4). For three cell lines (HCT-116, MDA-MB-231 and HT29) in the assay for phosphorylation of GSK3β, PRAS40 and 4E-BP1, IGF-I stimulation (500 ng/mL, recombinant human IGF-I) for the last 10 min of incubation was used. The media was aspirated from the wells and the plate was placed on ice. Then 35 μL of Lysis Buffer was added to each well and incubated on ice for at least 30 minutes. During the incubation, the standard curve for each phosphoprotein was prepared. The standards provided were reconstituted and serial dilutions were prepared according to the manufacturer's instructions. At the end of the cell lysis step, […] of the lysate was transferred to a V-bottom plate and spun at 4° C. at 2000 rpm for 5 minutes. Both the 1× Luminex bead and 1× detector antibody solutions were prepared during this time. The 1× bead solution was vortexed and 25 μL was added into each well of a black round bottom plate. Then 50 μL of the 1× detector antibody was added to each well. Fifty microliters (50 μL) of the prepared standards were added to the designated wells. Then 25 μL of the assay diluent was added to each well designated for the compound-treated cell lysates. At the end of the spin, 25 μL of cell lysate was added to the corresponding wells of the black assay plate. The assay plate was covered with the white plate lid and incubated for 3 hours at room temperature on an orbital shaker.
Approximately 10-15 minutes prior to the end of the first incubation, the secondary antibody solution was prepared according to the vendor's protocol. Goat anti-rabbit R-phycoerythrin red fluorescent protein (RPE) supplied as a 10× concentrate was diluted to generate a 1× goat anti-rabbit RPE stock. The 96-well filter plate was pre-wet with 200 μL of 1× Working wash solution. At the end of the 3 hour incubation, a multichannel pipette was used to transfer the entire contents from each assay well into the wells of the filter plate. The liquid from the wells was removed by aspiration with the vacuum manifold. Then 200 μL of 1× Working wash solution was added into each well. The wash solution was aspirated using the vacuum manifold after 15-30 seconds. This wash step was repeated one time. The bottom of the plate was blotted on clean paper towels to remove residual liquid. […]

[1] = PC3 cell line, read-out: MSD p70S6K
[2] = PC3 cell line, read-out: MSD GSK-3β
[3] = PC3 cell line, read-out: Luminex p70S6K

Row | Structure (SMILES) | IC50 (Phospho-PRAS40(T246)) [nM] | IC50 (Phospho-p70S6K (T389); [1]) [nM] | IC50 (Phospho-GSK3β(S9)) [nM] | IC50 (GSK-3β; [2]) [nM] | IC50 (p70S6K; [3]) [nM] | also measured
1 | Cc1nc(-c2nnc[nH]2)ccc1-c1cnc2c(n1)N(CCC1CCOCC1)C(=O)CN2 [C-9] | 37 | 4 | 43 | 213 |  | 
2 | CCN1C(=O)CNc2ncc(-c3cnc4[nH]ccc4c3)nc21 [C-103] | 696 | > 500 | 153 | > 500 | 150 | 
3 | COC1CCC(N2C(=O)CNc3ncc(-c4ccc(-c5nnc[nH]5)nc4C)nc32)CC1 (stereo not drawn) [C-16] | 43 | 13 | 141 | 152 | 3 | 
4 | CCn1c(=O)[nH]c2ncc(-c3ccc(-c4ncn[nH]4)c(F)c3C)nc21 [C-12] | 1120 | 436 | 936 | > 5000 | 79 | 
5 | O=c1[nH]c2ncc(-c3ccc(-c4nc[nH]n4)cc3)nc2n1CCC1CCOCC1 [C-2] | 180 | 46 | 255 | > 1500 | 30 | 
6 | COCCN1C(=O)CNc2ncc(-c3ccc(-c4nnc[nH]4)nc3C)nc21 [C-14] | 61 | 31 | 366 | 366 |  | 
7 | CCN1C(=O)CNc2ncc(-c3ccc(-c4nnc[nH]4)nc3C)nc21 [C-54] | 39 | 31 | 370 | 181 | 13 | 
8 | Cc1nc(-c2nnc[nH]2)ccc1-c1cnc2c(n1)N(C(C)C)C(=O)CN2 [C-69] | 285 | 80 | 342 | 394 |  | 
9 | COC1CCC(N2C(=O)CNc3ncc(-c4cnc(-c5ncn[nH]5)cc4C)nc32)CC1 (stereo not drawn) [C-93] |  | 1 | 2 | > 1.5 |  | 
10 | COC1CCC(N2C(=O)CNc3ncc(-c4ccc(C(C)(C)O)nc4)nc32)CC1 (stereo not drawn) [C-15] | 96 | 82 | 240 | > 500 | 32 | 
11 | CO[C@H]1C[C@@H]2CC[C@@H](C)[C@@](O)(O2)C(=O)C(=O)N2CCCC[C@H]2C(=O)O[C@H]([C@H](C)C[C@@H]2CC[C@@H](O)[C@H](OC)C2)CC(=O)[C@H](C)/C=C(\C)[C@@H](O)[C@@H](OC)C(=O)[C@H](C)C[C@H](C)/C=C/C=C/C=C/1C [rapamycin, reference compound] |  |  |  |  |  | IC50 (S6RP(S235/S236); HCT-116, HCT116 cell line): 0.029 nM; IC50 (S6RP(S235/S236); PC-3, PC3 cell line): 0.019 nM; inhibition of the phosphorylation of Akt(S473) (Akt(S473)): did not inhibit; IC50 (Phospho-4E-BP1(T46)): > 10000 nM
12 | CO[C@H]1CC[C@@H](N2CC(=O)Nc3ncc(-c4ccc(-c5nc[nH]n5)c(F)c4C)nc32)CC1 [C-110] |  | 22 |  | > 150 |  | 
13 | COCCN1C(=O)CNc2ncc(-c3ccc(-c4nnc[nH]4)nc3C)nc21 [A-9, 1-(2-methoxyethyl)-7-(2-methyl-6-(4H-1,2,4-triazol-3-yl)pyridin-3-yl)-3,4-dihydropyrazino[2,3-b]pyrazin-2(1H)-one] |  |  |  |  |  | IC50 (Phospho-p70S6K (T389); Homo sapiens, HCT-116, HCT116 cell line, IGF, read-out: MSD p70S6K (IGF)): 846 nM; IC50 (Phospho-p70S6K (T389); Homo sapiens, U-87 MG, U87MG cell line, read-out: MSD p70S6K): 268 nM; IC50 (p70S6K; Homo sapiens, HCT-116, HCT116 cell line, IGF, read-out: Luminex p70S6K (IGF)): 103 nM; IC50 (p70S6K; Homo sapiens, U-87 MG, U87MG cell line, read-out: Luminex p70S6K): 37.7 nM; IC50 (GSK-3β; Homo sapiens, HCT-116, HCT116 cell line, IGF, read-out: MSD GSK-3β (IGF)): > 2000 nM; IC50 (GSK-3β; Homo sapiens, U-87 MG, U87MG cell line, read-out: MSD GSK-3β): > 2000 nM
